Results on 14 compounds are retold here after US6790971B1, “19-Nor-steroids” (Aventis Pharma S.A., priority 1989, dated 2004).

Experiment [1] has as its target T1, Estrogenic Receptor of Mouse Uterus (Mus musculus, UniProt P19785).
T1 construct: their uteri were removed, then homogenized at 0° C; from tissue; host or cells: uterine cytosol (105,000 g supernatant) of immature female mice
T1 sequence (P19785 1-599): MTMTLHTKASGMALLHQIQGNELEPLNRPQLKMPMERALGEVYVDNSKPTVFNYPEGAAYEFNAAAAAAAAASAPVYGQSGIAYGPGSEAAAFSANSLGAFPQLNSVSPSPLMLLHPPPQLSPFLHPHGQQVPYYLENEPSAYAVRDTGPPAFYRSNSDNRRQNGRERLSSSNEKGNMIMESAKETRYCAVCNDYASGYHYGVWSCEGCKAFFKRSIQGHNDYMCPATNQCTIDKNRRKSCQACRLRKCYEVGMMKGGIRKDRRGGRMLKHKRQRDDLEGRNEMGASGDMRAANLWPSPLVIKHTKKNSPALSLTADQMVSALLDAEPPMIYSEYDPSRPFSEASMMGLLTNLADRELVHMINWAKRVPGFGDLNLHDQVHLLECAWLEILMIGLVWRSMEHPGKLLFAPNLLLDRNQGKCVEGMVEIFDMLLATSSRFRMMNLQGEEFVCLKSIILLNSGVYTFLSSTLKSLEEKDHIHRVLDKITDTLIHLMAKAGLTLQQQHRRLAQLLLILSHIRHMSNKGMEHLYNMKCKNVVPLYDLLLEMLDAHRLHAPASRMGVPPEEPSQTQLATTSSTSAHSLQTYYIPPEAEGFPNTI
The experiment in a line: Relative affinity of the bond, estrogen receptor (tritiated estradiol displacement). In kind it is binding. The following applies: for Relative affinity of the bond (RAB), Oestrogen Receptors, 5 Hrs: incubation time 5 Hrs; for Relative affinity of the bond (RAB), Oestrogen Receptors, 5 Hrs / Relative affinity of the bond (RAB), Oestrogen Receptors, 2 Hrs: second part of the table; for Relative affinity of the bond (RAB), Oestrogen Receptors, 5 Hrs / Relative affinity of the bond (RAB), Oestrogen Receptors, 2 Hrs / Relative affinity of the bond (RAB), Oestrogen, 2 H / Relative affinity of the bond (RAB), Oestrogen, 6 H: RAB=100(CH)/(CX); for Relative affinity of the bond (RAB), Oestrogen Receptors, 2 Hrs: incubation time 2 Hrs; for affinity for the estrogen receptors: at the second time (incubation); for Relative affinity of the bond (RAB), Oestrogen, 2 H: incubation 2 H at 0° C.; for Relative affinity of the bond (RAB), Oestrogen, 6 H: incubation 6 H (second time). The procedure:
Estrogenic Receptor of Mouse Uterus:
Impuberal female mice aged from 18 to 21 days were killed and their uteri were removed, then homogenized at 0° C. with the aid of a Potter teflon-glass in a TS buffered solution (10 mM Tris, 0.25 M saccharose, HCL pH 7.4) (1 g of tissue for 25 ml of TS). The homogenate was ultracentrifuged (105,000 g×90 min) at 0° C. and aliquots of the supernatant were incubated at 0° C. or at 25° C. for a time (t) with a constant concentration (T) of tritiated estradiol in the presence of increasing concentrations (0-1000×10^−9 M) either of cold estradiol, or of the cold product to be tested. The concentration (B) of bound tritiated estradiol was measured in each incubate by the technique of adsorption on dextran carbon.
Calculation of the Relative Affinty of the Bond
The calculation of the Relative Affinity of the Bond (RAB) was identical for all the receptors. The following 2 curves were traced; the percentage of the bound tritiated hormone [formula]
was a function of the logarithm of the concentration of the cold reference hormone and [formula]
as a function of the logarithm of the concentration of the cold product tested.
One determined the straight line of the equation [formula]
The intersections of the straight line I50 and of the curves make it possible to evaluate the concentrations of the cold reference hormone (CH) and of the tested cold product (CX) which inhibit to an extend of 50% the binding of the tritiated hormone upon the receptor. The relative affinity of the bond (RAB) of the tested product is determined by the equation

For experiment [2], the system named is MCF-7 mammary tumoral cells. The experiment in a line: Anti-proliferative activity upon the growth of MCF-7 cells (DNA measurement with DABA). In kind it is cell-based. The conditions noted are these: 6 days, inhibition of the increase of DNA, read-out: concentration which inhibited the growth of MCF7 to an extent of 50% (IC50). The procedure:
B. Anti-proliferative activity of the products of the invention upon the growth of MCF-7 mammary tumoral cells.
The MCF-7 strains were kept under culture in FCS(1) medium at 37° C. under a humid atmosphere containing 5% CO2 and the cells at subconfluence were harvested by trypsination (0.05% trypsine, 0.02% EDTA), then rinsed by gentle centrifugation. A sample of the cells in suspension was counted on Malassez cell.
The cells, resuspended in FCS medium, were seeded at a rate of 30,000 cells per pit in multi-pit plates (24 pits of 2.5 cm^2) and twenty four hours after seeding (DO), the product to be tested was added to the medium in ethanolic solution (final concentration in ethanol: 0.1%), at a concentration of 10^−12 to 10^−6 M, the control pits receiving the same concentration of ethanol. The media were renewed every 48 hours and at the end of the experiment (D6), the medium was sucked off and the cells were immediately fixed with 150 microliters of methanol to estimate the DNA. The anti-proliferative activity of the products was evaluated by their capacity to inhibit the increase of DNA.
The DNA was measured by a fluorimetric method employing DABA (3,5-diaminobenzoic acid) (2): 150 microliters of DABA were added to each of the pits and the plates were then incubated for 45 minutes at 56° C., then 2 ml of 1 N HCl were added. The fluorescence was measured with the aid of a fluorimeter (length of the exiting wave: 408 nm, length of the emitting wave: 501 nm). The quantity of DNA per pit was evaluated with reference to a standard scale obtained by treating a standard DNA from calf thymus under the same conditions.
The concentration in nM which inhibited the growth of MCF7 to an extent of 50% (IC50) was determined in the manner indicated below:
(1) The fetal calf serum (FCS) culture medium was prepared as follows: MEM medium (minimal essential medium) to which were added:
Non-essential amino acids (GIBCO),
Peni-strepto (100 U/ml penicillin, 0.1 mg/ml streptomycin),
Fetal calf serum containing no steroids (10% final concentration).
(2) Puzas and Goodman, Analytical Biochemistry, Vol. 86, pp. 50, 1978.

Structures are written as SMILES.

As to `CCCCN(C)C(=O)CSCCCCCOc1ccc([C@H]2C[C@]3(C)[C@@H](OC(=O)CCC(=O)O)CC[C@H]3[C@@H]3CCc4cc(O)ccc4[C@H]32)cc1` [Example 96, Monobutanedioate of 11β-(4-(5-((2-(Butyl-Methylamino)-2-Oxoethyl)-Thio)-Pentyloxy)-Phenyl)δ^1,3,5(10)-Estratrien-3-ol-17 β-yl], the “Relative affinity of the bond (RAB), Oestrogen Receptors, 5 Hrs” value (“Relative affinity of the bond (RAB) … 5 Hrs” for short) in experiment [1] is given as 16.

Consider `CCCCN(C)C(=O)COCCCCCCOc1ccc([C@H]2C[C@]3(C)[C@@H](O)CC[C@H]3[C@@H]3CCc4cc(O)ccc4[C@H]32)cc1` [Example 83], for which the IC50 in experiment [2] turned out to be 7 pM. In experiment [1], the “Relative affinity of the bond (RAB), Oestrogen Receptors, 2 Hrs” value (“Relative affinity of the bond (RAB) … 2 Hrs” below) was determined as 3.3 and the “Relative affinity of the bond (RAB) … 5 Hrs” value is 29.

As for `CCCCN(C)C(=S)COCCCCCOc1ccc([C@H]2C[C@]3(C)[C@@H](O)CC[C@H]3[C@@H]3CCc4cc(O)ccc4[C@H]32)cc1` [Example 78, N-butyl-[5-[4-(3,17β-dihydroxy-δ^1,3,5(10)-estratrien-11β-yl)-phenoxy]-pentyloxy]-N-methyl-ethanethioamide], the IC50 in experiment [2] is 30 pM. Besides, the “Relative affinity of the bond (RAB) … 5 Hrs” value in experiment [1] was 20.

`CCCCN(C)C(=O)COCCCCCC#Cc1ccc([C@H]2C[C@]3(C)[C@@H](O)CC[C@H]3[C@@H]3CCc4cc(O)ccc4[C@H]32)cc1` [Example 37, 2-((7-(4-(3,17β-dihydroxy-Δ^1,3,5(10)-estratrien-11β-yl)-phenyl)-6-heptynyl.)-oxy)-N-butyl-N-methyl Acetamide]: in experiment [2], the IC50 stood at 30 pM. In experiment [1], the “affinity for the estrogen receptors” value is listed as “marked affinity”; the “Relative affinity of the bond (RAB), Oestrogen, 2 H” value (shortened to “Relative affinity … Oestrogen, 2 H”) worked out at 0.6; the “Relative affinity of the bond (RAB), Oestrogen, 6 H” value (“Relative affinity of the bond … 6 H” below) is on record as 28.

As to `CCCCN(C)C(=O)CCCCCC#Cc1ccc([C@H]2C[C@]3(C)[C@@H](O)CC[C@H]3[C@@H]3CCc4cc(O)ccc4[C@H]32)cc1` [Example 35], the IC50 in experiment [2] amounted to 40 pM. For the same compound, in experiment [1], the “Relative affinity … Oestrogen, 2 H” value is recorded as 0.13 and the “Relative affinity of the bond … 6 H” value stood at 12.

For the compound `CCCCN(C)C(=O)COCCCCCOc1ccc([C@H]2C[C@]3(C)[C@@H](O)CC[C@H]3[C@@H]3CCc4cc(O)ccc4[C@H]32)cc1` [Example 43, N-butyl-[5-[4-(3,17β-dihydroxy-Δ^1,3,5(10)-estratrien-11β-yl)-phenoxy]-pentyloxy]-N-methyl acetamide], the IC50 in experiment [2] was 2 pM. In experiment [1], the “Relative affinity … Oestrogen, 2 H” value is 4.0 and the “Relative affinity of the bond … 6 H” value turned out to be 3.0.

Take `CCCCN(C)C(=S)CCCCCCCOc1ccc([C@H]2C[C@]3(C)[C@@H](O)CC[C@H]3[C@@H]3CCc4cc(O)ccc4[C@H]32)cc1` [Example 79, N-butyl-8-(4-(3,17β-dihydroxy-δ^1,3,5(10)-estratrien-11β-yl)-phenoxy)-N-methyloctanethioamide]: the IC50 in experiment [2] is 35 pM. Moreover, the “Relative affinity of the bond (RAB) … 5 Hrs” value in experiment [1] is 16.

On to `CCCCN(C)C(=O)CSCCCCCc1ccc([C@H]2C[C@]3(C)[C@@H](O)CC[C@H]3[C@@H]3CCc4cc(O)ccc4[C@H]32)cc1` [Example 86], for which, in experiment [2], the IC50 amounted to 9 pM. Besides, the “Relative affinity of the bond (RAB) … 5 Hrs” value in experiment [1] worked out at 11.7.

Consider `CCCCN(C)C(=O)CCCCCCCOc1ccc([C@H]2C[C@]3(C)[C@@H](O)CC[C@H]3[C@@H]3CCc4cc(O)ccc4[C@H]32)cc1` [Example 46, N-butyl-8-[4-(3,17β-dihydroxy-Δ^1,3,5,(10)-estratrien-11β-yl)-phenoxy]-N-methyl Octanamide], for which the IC50 in experiment [2] is 6 pM. In experiment [1], the “affinity for the estrogen receptors” value was “marked affinity”; the “Relative affinity … Oestrogen, 2 H” value is recorded as 0.3; the “Relative affinity of the bond … 6 H” value stood at 65.

For the compound `CC(C)N(C)C(=O)COCCCCCCCC[C@H]1C[C@]2(C)[C@@H](O)CC[C@H]2[C@@H]2CCc3cc(O)ccc3[C@@H]12` [Example 71, [[8(3,17beta-dihydroxy-estra-1,3,5(10)-trien-11beta-yl)-octyl]-oxy]-N-methyl-N-(1-methylethyl) acetamide], the IC50 in experiment [2] came out at 100 pM. For the same compound, in experiment [1], the “affinity for the estrogen receptors” value was “marked affinity”; the “Relative affinity … Oestrogen, 2 H” value worked out at 0.6; the “Relative affinity of the bond … 6 H” value worked out at 50.

For `CCCCN(C)C(=O)CCCCCCCSc1ccc([C@H]2C[C@]3(C)[C@@H](O)CC[C@H]3[C@@H]3CCc4cc(O)ccc4[C@H]32)cc1` [Example 92, N-Butyl-8-(4-(δ^1,3,5(10)-Estratrien-3,17β-Diol-11 β-yl)-Phenyl-Thio)-N-Methyl-Octanamide], the IC50 in experiment [2] is 15 pM. Further, in experiment [1], the “affinity for the estrogen receptors” value is reported as “marked affinity”; the “Relative affinity of the bond (RAB) … 2 Hrs” value stood at 2.8; the “Relative affinity of the bond (RAB) … 5 Hrs” value came to 47.

On to `CCCCN(C)C(=O)CCCCCCCc1ccc([C@H]2C[C@]3(C)[C@@H](O)CC[C@H]3[C@@H]3CCc4cc(O)ccc4[C@H]32)cc1` [Example 8, N-Butyl-4-[3,17β-dihydroxy-Δ^1,3,5(10)-estratrien-11β-yl]-N-methyl benzene octanamide], for which the IC50 in experiment [2] came out at 40 pM. The “affinity for the estrogen receptors” value in experiment [1] is given as “marked affinity”.

For the compound `CN(CC(F)(F)C(F)(F)C(F)(F)F)C(=O)CCCCCCCOc1ccc([C@H]2C[C@]3(C)[C@@H](O)CC[C@H]3[C@@H]3CCc4cc(O)ccc4[C@H]32)cc1` [Example 82, 8-(4-(δ^1,3,5(10)-estratrien-3,17β-diol-11β-yl)-phenoxy)-N-(2,2,3,3,4,4,4-heptafluorobutyl)-N-methyl-octanamide], the IC50 in experiment [2] was determined as 20 pM. Further, in experiment [1], the “Relative affinity of the bond (RAB) … 2 Hrs” value is recorded as 0 and the “Relative affinity of the bond (RAB) … 5 Hrs” value came to 23.

Take `C#C[C@]1(O)CC[C@H]2[C@@H]3CCc4cc(O)ccc4[C@H]3[C@@H](CCCCCCCCCCC(=O)N(C)C(C)C)C[C@@]21C` [Example 55, 3,17β-Dihydroxy-N-Methyl-N-Isopropyl-19-Nor-17α-Δ^1,3,5(10)-Pregnatrien-20-Yn-118-Undecanamide]: the IC50 in experiment [2] came to 10 pM. Moreover, in experiment [1], the “affinity for the estrogen receptors” value is listed as “marked affinity”; the “Relative affinity … Oestrogen, 2 H” value amounted to 1.2; the “Relative affinity of the bond … 6 H” value is listed as 45.
